The source of these data is US11459337B2, “Isothiazolo[5,4-D]pyrimidine compound as IRAK4 inhibitor” (priority 2018, dated 2022).

In general, bioavailability refers to the share of a dose that reaches the circulation, judged against a reference dose that is usually intravenous. Usually Tmax stands for the time at which the peak concentration occurs. As a reminder, the IC50 is the concentration at which inhibition is half-maximal.

Data set [1] in a line: Pharmacokinetic study of oral and intravenous test compounds in SD rats. The data set is classed as in vivo. Conditions: rat, plasma, SD male rats; for AUC(0-t): read-out: Area under plasma concentration-time curve AUC0-last. How it is done: Pharmacokinetic Study of Oral and Intravenous Test Compounds in SD Rats The test compound was mixed with a solution containing 10% of methyl pyrrolidone, 10% of polyethylene glycol stearate and 80% of water. The mixture was vortexed and sonicated to prepare a 1.5 mg/mL clarified solution, which was then filtered through a microporous membrane for later use. SD male rats aged 7 to 10 weeks were selected and administered intravenously with a dose of the candidate compound at 3 mg/kg. The test compound was mixed with 0.5% aqueous methylcellulose solution. The mixture was vortexed and sonicated to prepare a 2 mg/mL suspension for later use. SD male rats aged 7 to 10 weeks were selected and orally administered with a dose of the candidate compound at 10 mg/kg. Whole blood was collected at certain time points, and plasma was separated. The drug concentration was measured by LC-MS/MS, and pharmacokinetic parameters were calculated using Phoenix WinNonlin software (Pharsight, USA).

The next data set concerns the target human IRAK4 (Homo sapiens (Human), UniProt Q9NWZ3). The experiment in a line: 33P-labeled kinase activity assay (Reaction Biology Corp), in vitro enzymatic activity. As to conditions: 20 μM ATP, 3 nM kinase, MBP substrate. Format: biochemical. How it is done: The inhibitory activity of the test compounds against human IRAK4 was evaluated by measuring IC50 values in a ^33P-labeled kinase activity assay (Reaction Biology Corp). Buffer conditions: 20 mM Hepes (pH 7.5), 10 mM MgCl2, 1 mM EGTA, 0.02% Brij35, 0.02 mg/mL BSA, 0.1 mM Na3VO4, 2 mM DTT, 1% DMSO. Procedures: The test compound was dissolved in DMSO at room temperature to prepare a 10 mM solution for later use. The substrate was dissolved in fresh buffer, to which the kinase was added and mixed well. The DMSO solution containing the test compound was added to the above mixed reaction system by an acoustic technique (Echo 550). The concentrations of the compounds in reaction system were 10 μM, 3.33 μM, 1.11 μM, 0.370 μM, 0.123 μM, 41.2 nM, 13.7 nM, 4.57 nM, 1.52 nM, and 0.508 nM. After 15 minutes of incubation, the reaction was started by adding ^33P-ATP (activity: 0.01 μCi/μL; the corresponding concentration is listed in Table 1). Supplier's catalog number, lot number and concentration information in the reaction system for IRAK4 and its substrate are listed in Table 1. After 120 minutes of reaction at room temperature, the resulting solution was loaded on P81 ion exchange chromatography paper sheet (Whatman #3698-915). After repeated washing with 0.75% phosphoric acid solution, the radioactivity of the phosphorylated substrate residue on the paper sheet was measured. The kinase activity data are shown as a comparison of the kinase activity of the test compound and the kinase activity of the blank (DMSO only) and a curve was fitted using Prism4 software (GraphPad) to give IC50 values, with the experimental results shown in Table 2. [table]

The nature of data set [2]: In vitro metabolic stability in liver microsome, mouse. Format: in vitro ADME. Conditions: Mouse liver microsomes, 1 μM compound, 0.5 mg/mL protein. Here is the method: (§1) Metabolic Stability in Liver Microsome The test compounds at 1 μM were co-incubated with liver microsomes having a protein concentration of 0.5 mg/mL under the action of a reductive coenzyme II regeneration system in a 37° C. water bath. • 1) Positive controls included: testosterone (3A4 substrate), propylamine propiophenone (2D6 substrate), and diclofenac (2C9 substrate). The positive controls were incubated in the same condition as the test compounds. • 2) The reaction was stopped using a stop reagent containing the internal standard at time points of 0, 5, 10, 20, 30 and 60 minutes. […] CLint^mic: intrinsic microsomal clearance;
For orientation: Microsomes from liver hold many membrane-bound enzymes, among them those of drug oxidation.

For a further data set, the system named is THP-1 cells. As to the kind of experiment: TNF-α ELISA assay in LPS-stimulated THP-1 cells. The data set is classed as cell-based, human. As to conditions: Homo sapiens, THP-1, 18 h, TNF-α in supernatant, 150 ng/mL LPS. How it is done: TNF-α ELISA Assay in THP-1 Cells THP-1 human acute unicellular leukemia cells were purchased from ATCC (Cat #TIB-202) and incubated in a 37° C., 5% CO2 incubator. The medium was RPMI1640 (Gibco, Cat #22400-105), the supplementary was 10% FBS (Gibco, Cat #10091148); 1% PenStrep (Gibco, Cat #15140); 0.05 mM 2-mercaptoethanol (Sigma, Cat #M6250). TNF-α content in the culture supernatant was measured by a TNF-α Elisa kit. TNF-α was produced by stimulation of THP-1 cells with 150 ng/mL LPS (Sigma, Cat #L6529). Normal THP-1 cells in logarithmic phase were inoculated in 96-well plates (Corning #3599) at a certain concentration (1×10^5/100 μL) and then incubated in an incubator. After two hours, 16.7 μL of test compound of different concentrations (8×final concentration) was added and the mixture was incubated. After one hour, 16.7 μL of 1200 ng/mL LPS was added and the mixture was incubated. After 18 hours, the culture was centrifuged and the supernatant was collected. The TNF-α content was measured by a TNF-α Elisa kit. Finally, the OD signals (OD450-OD570) were read on an envision plate reader. The OD450-OD570 signals were converted to percent inhibition. Inhibition %=(ZPE−sample)/(ZPE−HPE)×100. “HPE” represents the OD450-OD570 signal value of the control without LPS-stimulated cells, and “ZPE” represents the OD450-OD570 signal value of the control with LPS-stimulated cells. IC50 values for compounds were calculated by XLFit in the Excel. Y=Bottom+(Top−Bottom)/(1+(IC50/X)^HillSlope). Equation: […]
(In general: In an ELISA, binding on a coated surface is turned into a signal by an enzyme label.)

The nature of data set [3]: In vitro metabolic stability in liver microsome, monkey. Format: in vitro ADME. As to conditions: Monkey liver microsomes, 1 μM compound, 0.5 mg/mL protein. Here is the method: as §1
Data set [4] can be described thus: In vitro metabolic stability in liver microsome, human. Format: in vitro ADME. Conditions: Human liver microsomes, 1 μM compound, 0.5 mg/mL protein. How it is done: as §1
Data set [5] can be described thus: In vitro metabolic stability in liver microsome, rat. The data set is classed as in vitro ADME. As to conditions: Rat liver microsomes, 1 μM compound, 0.5 mg/mL protein. How it is done:
as §1

The test system of data set [6] is LPS-induced TNF-α secretion. As to the kind of experiment: Pharmacodynamic study evaluating LPS-induced TNF-α secretion in SD rats. Conditions: for inhibitory effect on LPS-induced TNF-α secretion: LPS 1 mg/kg i.p. Format: in vivo. Here is the method: Pharmacodynamic Study Evaluating […] (LPS)-Induced TNF-α Secretion in SD Rats SD rats were orally administered with a solvent, dexamethasone (DEX, 0.5 mg/kg) as positive control, and the test compound, and were intraperitoneally injected with LPS (1 mg/kg) 0.5 hours after the administration Animals were euthanized with CO2 2 hours after LPS injection. Cardiac blood was collected into EDTA-K2 vacutainers, and a part of the anticoagulated blood was centrifuged and the plasma was frozen at −80° C. Frozen plasma was thawed at room temperature and the concentration of TNF-α in the plasma was measured using ELISA kit. The experimental data were expressed using mean±SEM, and TNF-α levels were analyzed by One-way ANOVA. Significant differences were considered for p<0.05.

Data set [7] is described as follows: In vitro metabolic stability in liver microsome, dog. As to conditions: Dog liver microsomes, 1 μM compound, 0.5 mg/mL protein. Format: in vitro ADME. Here is the method:
as §1

Where two headings read alike, the source gives them in different places.

Chain of human IRAK4 (Q9NWZ3 whole entry): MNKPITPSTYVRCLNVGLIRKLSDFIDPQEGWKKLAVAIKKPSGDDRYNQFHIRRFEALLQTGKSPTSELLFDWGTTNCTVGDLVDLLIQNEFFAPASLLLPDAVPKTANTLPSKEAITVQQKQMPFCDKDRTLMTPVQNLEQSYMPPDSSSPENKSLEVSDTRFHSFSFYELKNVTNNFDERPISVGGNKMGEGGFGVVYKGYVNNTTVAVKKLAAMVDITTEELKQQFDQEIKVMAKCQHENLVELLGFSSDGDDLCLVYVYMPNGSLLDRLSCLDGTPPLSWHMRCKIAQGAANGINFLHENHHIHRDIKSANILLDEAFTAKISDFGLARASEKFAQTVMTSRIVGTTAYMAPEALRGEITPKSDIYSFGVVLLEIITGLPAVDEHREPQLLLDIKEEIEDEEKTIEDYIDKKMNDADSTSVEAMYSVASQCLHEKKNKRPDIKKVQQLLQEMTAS

Consider `Cc1nsc2nc(Nc3cnn(C4CCOCC4)c3)nc(N[C@H]3CC[C@H](N4CCOCC4)CC3)c12` [WX001], for which the Vd in [1] (Intravenous, 3 mg/kg, read-out: Apparent volume of distribution Vdss) amounted to 4.6 L/kg. Moreover, the AUC(0-t) came to 1.75 µM·h in [1] (Intravenous, 3 mg/kg) and 2.05 µM·h in data set [1] (Oral, 10 mg/kg). Further, the clearance in [1] (Intravenous, 3 mg/kg, read-out: Clearance CL) came to 57 mL/min/kg. The half-life in data set [1] (Intravenous, 3 mg/kg, read-out: Half life T1/2 (converted)) was 1.4 h. The bioavailability in data set [1] (Oral, 10 mg/kg, read-out: Bioavailability F) is 35%. Further, the Cmax in data set [1] (Oral, 10 mg/kg, read-out: Peak concentration Cmax) is 397 nM. In [1] (Oral, 10 mg/kg, read-out: Time to peak Tmax), the Tmax is 2.3 h. Also, the IC50 against human IRAK4 came to 6.8 nM; in the data set on THP-1 cells, 177 nM. For the same molecule, the “Re1 h % (residue of test compound at 1 hour)” value in [2] is 39.1%; in data set [3] it was 3.2%; in data set [4], 50.0%; in data set [5], 76.6%; in data set [7], 60.5%. In addition, the “efficacy compared with dexamethasone DEX” value in [6] (FIG. 1, oral, 30 mpk, DEX 0.5 mg/kg) is “equivalent”. The “inhibitory effect on LPS-induced TNF-α secretion” value in data set [6] (FIG. 1, oral, 30 mpk) is reported as “significant inhibitory effect”; in data set [6] (FIG. 2, oral, 20 mpk), “significant inhibitory effect”. The “inhibitory effect compared with reference compounds WXR2, WXR3 and WXR4” value in [6] (FIG. 1, oral, same doses (30 mpk)) is “significantly superior”.
